These results are taken from PubChem BioAssay AID2423 (Broad Institute, 2010).

Each structure is given as a SMILES string. pEC50: −log10 of the molar value. Results filed as inconclusive are left out. Calls of active or inactive are those of the source. How the calls were made is not given here.

The assay deals with C. albicans CaCi-8 + fluconazole, Alamar Blue growth, 48 h. Nature of the assay: resistant C. albicans growth inhibition with fluconazole, dose response, CaCi-8 strain, Alamar Blue fluorescence (AID 2423).
On to `Cc1cccc(NC2=NC(=S)N(c3cccc(C(=O)O)c3)C23CCCCC3)c1`, for which the pEC50 was 6.11.

Regarding `CC(C)(C)c1ccc(OCCCC(=O)NNC(=O)c2ccccc2O)cc1`, the pEC50 is 5.59.

On to `CC(C)CCN1C(=O)c2ccc(C(=O)Nc3ccc(Br)cc3C(=O)O)cc2C1=O`, for which the pEC50 is 5.90.

For the molecule `COc1ccc(-c2nnc(NC(=O)c3cc(Cl)ccc3Cl)o2)cc1`, the pEC50 was 5.95.

On to `Nc1nc(N)c2cc(Sc3ccc4ccccc4c3)ccc2n1`, for which the pEC50 is 5.93.

As for `Cc1ccc(C2CC2C(=O)NNC(=S)Nc2cccc(Cl)c2)cc1` (stereo not given), the pEC50 was 5.48.

On to `COc1ccc(C(=O)NC(=S)NNC(=O)c2cnccn2)cc1`, for which the pEC50 was 5.45.

`Oc1c(C(c2ccc(Cl)cc2)N2CCCC2)cc(Cl)c2cccnc12` (stereo not given): the negative logarithm of the EC50 (pEC50) is 6.16.

With `CC1(C)CC(N=Cc2c(O)n(Cc3ccc4c(c3)OCO4)c(=O)c3ccccc23)CC(C)(C)N1`, the pEC50 was 5.41.

Take `O=C(NCc1ccc(F)cc1)c1ccc(CS(=O)(=O)Cc2ccccc2F)o1`: the EC50 is > 15 µM (inactive).

Turning to `c1ccc(CSc2nnc(-c3cccs3)n2Cc2ccco2)cc1`, the negative-log EC50 (pEC50) was 5.33.

Take `C=CCn1c(O)c(N=NC(=S)Nc2ccccc2C)c2cc(S(=O)(=O)N3CCOCC3)ccc21`: the pEC50 is 5.93.

Turning to `Nc1c(S(=O)(=O)c2cccc(Cl)c2)c2nc3ccccc3nc2n1/N=C/c1ccc(O)c(O)c1`, the pEC50 was 5.19.

On to `O=C(/C=C/c1ccco1)Nc1cccc(-c2nc3ccccc3[nH]2)c1`, for which the pEC50 was 5.90.

For the molecule `O=C(CCc1ccccc1)NNC(=S)NC(=O)c1ccccc1`, the pEC50 was 5.50.

`CCCC(=O)NC(c1cccs1)c1cc(Cl)c2cccnc2c1O` (stereo not given): the pEC50 is 6.14.

In the case of `O=C(/C=C/c1ccco1)Oc1cc(Br)cc(/C=N/NC(=O)c2ccccc2O)c1`, the negative-log EC50 (pEC50) is 5.48.

For `Brc1ccc(/C=C/C=N/Nc2nc3ccccc3s2)cc1`, the EC50 was > 16 µM (inactive).

`CCCOc1cccc(-c2nnc(NC(=O)c3ccco3)s2)c1`: the pEC50 is 6.21.

In the case of `COCCNC(=O)C(c1ccc(C)o1)N(CCOC)C(=O)Cn1nnc2ccccc21` (stereo not given), the EC50 is > 15 µM (inactive).

As to `Oc1ccccc1C(Nc1nccs1)c1ccc2cccnc2c1O` (stereo not given), the pEC50 was 5.56.

As for `CC(CC(=O)Nc1ncc([N+](=O)[O-])s1)c1ccccc1` (stereo not given), the pEC50 is 6.49.

Take `Cc1ccc2nc(/C(C#N)=C\c3ccc(OC(=O)c4cccs4)cc3)[nH]c2c1`: the pEC50 was 6.28.

`O=C(Oc1c(Cl)cc(Cl)c2cccnc12)c1cccs1`: the pEC50 was 6.35.

In the case of `CN1CCc2cc3c(c4c2[C@H]1[C@H](O)c1ccccc1-4)OCO3`, the pEC50 is 5.09.

In the case of `Cn1c(SCC(=O)N2CCCc3ccccc32)nnc1-c1ccccc1`, the EC50 was > 16 µM (inactive).

Regarding `Cn1c(N/N=C/c2c[nH]c3ccccc23)nc2ccccc21`, the negative logarithm of the EC50 (pEC50) was 5.22.

On to `C=CCn1c(O)c(N=NC(=S)Nc2ccc(OC)cc2)c2ccccc21`, for which the pEC50 is 5.11.

Take `COc1ccc(-n2c(=O)c3c4c(sc3n3c(=S)[nH]nc23)CCCC4)cc1`: the pEC50 was 6.13.

With `CN1c2ccccc2N(C)C1(C)c1ccccc1`, the EC50 is > 15 µM (inactive).

On to `NC(=O)c1c(NC(=O)c2ccncc2)sc2c1CCCC2`, for which the pEC50 was 5.46.

In the case of `COCC(=O)Nc1nc2n(n1)C(c1ccccc1Cl)CC(c1ccc(OC)cc1)N2` (stereo not given), the EC50 was > 16 µM (inactive).

Take `O=C(Nc1ccncc1)c1ccc(Br)cc1`: the EC50 is > 15 µM (inactive).

`COc1ccc(-n2cc(-c3ccc(C)cc3)[n+]3c2SCC3)cc1`: the pEC50 is 5.53.

`S=C(Nc1ccc(Cl)cc1)c1nc2ccccc2[nH]1`: the pEC50 was 5.79.

Take `Cc1cc(C(=O)Nc2sc3c(c2C#N)CCCC3)no1`: the pEC50 is 6.01.

For `C/C(=N\NC(=O)c1cc(C2CC2)nc2ccccc12)c1ccc(O)cc1O`, the negative logarithm of the EC50 (pEC50) was 5.67.

Regarding `Cc1n[nH]c(=S)n(NC(=O)CC(=O)Nn2c(=S)[nH]nc(C)c2=O)c1=O`, the pEC50 is > 6.92.

On to `Cc1ccc(C(=O)NC(=S)NNC(=O)c2ccccc2[N+](=O)[O-])cc1`, for which the EC50 is > 15 µM (inactive).

On to `COc1cnc(-c2ccccn2)nc1Sc1cccc(Cl)c1`, for which the EC50 was > 16 µM (inactive).

Take `O=C(/C=C\c1ccc(-c2cccc([N+](=O)[O-])c2)o1)N1CCOCC1`: the pEC50 is 5.51.

Consider `CC[n+]1c(/C=C/N(C)c2ccccc2)oc2ccccc21`, for which the negative logarithm of the EC50 (pEC50) is 5.12.

As to `CN(C)S(=O)(=O)Oc1cccc(C(=O)Nc2cccc(Cl)c2)c1`, the pEC50 was 5.87.

For `Cc1cc(=O)oc2cc(Oc3ccc([N+](=O)[O-])cc3[N+](=O)[O-])ccc12`, the pEC50 is 6.19.

For `O=C(Nc1nc(-c2ccccn2)cs1)c1ccc(Br)s1`, the pEC50 is 6.00.

As for `CCOc1ccc(C(Nc2cccnc2)c2cc(Cl)c3cccnc3c2O)cc1` (stereo not given), the pEC50 was 6.03.

As for `CCc1nnc(NC(=O)Cn2ccc(C(F)(F)F)n2)s1`, the EC50 was > 15 µM (inactive).

For the molecule `N#C/C(=C(/O)COc1ccc(Cl)cc1)c1nc2ccccc2s1`, the EC50 was > 15 µM (inactive).

`CCCCCCCCCCCCCCCC[n+]1cccc(C(=O)N(CC)CC)c1`: the pEC50 is 5.21.

Turning to `CC(=O)Nc1ccc(NC(=O)CCCN2C(=O)c3ccccc3C2=O)cc1`, the EC50 is > 15 µM (inactive).

Regarding `C=CC[C@@H]1C=C(C)C[C@H](C)C[C@H](OC)[C@H]2O[C@@](O)(C(=O)C(=O)N3CCCC[C@H]3C(=O)O[C@H](/C(C)=C/[C@@H]3CC[C@@H](O)[C@H](OC)C3)[C@H](C)[C@@H](O)CC1=O)[C@H](C)C[C@@H]2OC`, the negative logarithm of the EC50 (pEC50) was > 6.92.

For the molecule `Cc1ncc(CO)c(/C=N/NC(=S)Nc2ccc(Cl)c(Cl)c2)c1O`, the pEC50 was 5.73.

As for `CCCOc1cccc(C(=O)N/N=C/c2coc3ccccc3c2=O)c1`, the EC50 was > 15 µM (inactive).

Regarding `Cc1c(O)cc2n(c1=O)-c1ccc(Cl)cc1C2(C)C`, the pEC50 is 6.48.

For the molecule `COc1ccc(C(NC(=O)C(C)C)c2ccc3cccnc3c2O)cc1` (stereo not given), the pEC50 is 6.10.

`C=CCc1cccc(/C=N/NC(=O)CNc2ccccc2OC)c1O`: the pEC50 is 4.90.

Turning to `COCc1cc(CN2CCN(C)CC2)c(O)c2ncccc12`, the pEC50 is 5.18.

In the case of `CCn1c(=S)[nH]c2scc(-c3cccs3)c2c1=O`, the EC50 was > 16 µM (inactive).

As for `Cc1ccc(S(=O)(=O)/N=C2/NC(=O)/C(=C\c3cc(Br)cc(Br)c3O)S2)cc1`, the negative-log EC50 (pEC50) was 5.01.

For `CNCc1ccccc1Sc1ccc(O)c(O)c1`, the pEC50 is 5.16.

Consider `CCCCCCC[n+]1ccc(-c2cc[n+](CCCCCCC)cc2)cc1`, for which the pEC50 was > 6.92.

Turning to `COc1cccc(N=Nc2ccc(O)c3ncccc23)c1`, the pEC50 was 6.30.

For the molecule `COc1ccc(CNCCNC(=O)c2ccco2)c(OC)c1OC`, the EC50 is > 16 µM (inactive).

As to `Cc1cc(C(=O)Nc2ccccc2C(=O)O)ccc1NC(=O)COc1cccc([N+](=O)[O-])c1`, the negative logarithm of the EC50 (pEC50) was 5.28.

Consider `CC(C)CC(=O)NC(c1cccs1)c1ccc2cccnc2c1O` (stereo not given), for which the negative-log EC50 (pEC50) was 6.06.

As for `CCN(CC)S(=O)(=O)c1ccc(N/N=C(\C)c2ccc(OC)cc2O)nc1`, the EC50 is > 16 µM (inactive).

For the molecule `CN(CCCNC(=O)CCCOc1cc(=O)n(C)c2ccccc12)Cc1ccccc1`, the EC50 was > 16 µM (inactive).

Consider `Cc1ccc(-c2cn(-c3ccccc3)c3[n+]2CCCS3)cc1`, for which the pEC50 is 4.99.

Take `COC1=CC(=O)C(O)=C(CCCCCCC/C=C/CCCCCCCC2=C(O)C(=O)C=C(OC)C2=O)C1=O`: the pEC50 is 4.92.

As to `CCCCC(=O)NC(c1ccc(Cl)cc1)c1ccc2cccnc2c1O` (stereo not given), the negative-log EC50 (pEC50) was 6.30.

Consider `CS(=O)(=O)NN1C(=O)c2ccccc2NC1c1cccc2cccnc12` (stereo not given), for which the pEC50 is 5.67.

`O=c1c2ccccc2nc(-c2ccc(Cl)cc2Cl)n1O`: the pEC50 is 5.99.

On to `CN1CCN(CCCNC(=O)c2ccc(/C=C3\Oc4ccccc4N(Cc4ccc(Cl)cc4)C3=O)cc2)CC1`, for which the pEC50 was 5.12.

In the case of `C/C(=N\NC(=O)c1cc(-c2cccnc2)nc2ccccc12)c1ccc(O)cc1O`, the pEC50 is 5.84.

`Cc1ccc(S(=O)(=O)CCC(=O)Nc2nc(-c3ccncc3)cs2)cc1`: the pEC50 is 5.67.

With `CN(C)S(=O)(=O)c1cccc(NC(=S)N/N=C/c2ccc(O)c(O)c2O)c1`, the negative-log EC50 (pEC50) was 5.57.

For `CC(C)(C)C(=O)NC(=S)NNC(=O)C(c1ccccc1)c1ccccc1`, the pEC50 is 5.66.

Regarding `O=C(Nc1nnc(-c2ccc(F)cc2)o1)c1cccc([N+](=O)[O-])c1`, the pEC50 was 5.99.

On to `O=S(=O)(Cc1ccccc1)N1CCc2ccccc21`, for which the pEC50 is 4.96.

Turning to `CCOc1cc(N2CCOCC2)c(OCC)cc1NC(=O)COc1cccc2cccnc12`, the EC50 was > 15 µM (inactive).

On to `O=C(COc1ccc2c(c1)CCC2)N1CCN(c2cccc(C(F)(F)F)c2)CC1`, for which the EC50 is > 16 µM (inactive).

With `C=C(C)CNC(=S)N/N=C1\CCCCc2ccccc21`, the EC50 is > 16 µM (inactive).

For `CCn1c(=O)c(C(=O)NCc2cccnc2)c(O)c2ccccc21`, the negative-log EC50 (pEC50) was 5.02.

Turning to `Cc1ccc(Sc2ncccc2C(=O)NCc2cc([N+](=O)[O-])ccc2O)c(C)c1`, the EC50 was > 15 µM (inactive).

As to `CCc1nnc(NC(=O)CN2CCN(c3nc(-c4ccccc4)cs3)CC2)s1`, the pEC50 was 6.43.

Regarding `O=c1c2ccccc2nc(-c2ccc([N+](=O)[O-])cc2)n1O`, the pEC50 is 5.19.

With `Cc1ccc(NC(=S)c2nc3ccccc3[nH]2)cc1`, the EC50 is > 16 µM (inactive).

As for `O=C(N/N=C/c1cc([N+](=O)[O-])ccc1O)c1ccc(COc2ccc3c(c2)CCC3)o1`, the pEC50 is 6.04.

Consider `COc1ccccc1-n1c(C)cc(SC)c(C(C)=O)c1=S`, for which the EC50 is > 15 µM (inactive).

Consider `CC(=O)NC(c1ccc(C)cc1)c1cc([N+](=O)[O-])c2cccnc2c1O` (stereo not given), for which the negative logarithm of the EC50 (pEC50) is 6.70.

Turning to `Cc1ccc(NC(=O)C2C(C(=O)O)C3C=CC2C32CC2)cc1` (stereo not given), the EC50 is > 16 µM (inactive).

Consider `CCN1/C(=C\c2ccc3cc(C)ccc3[n+]2CC)Sc2cc(C)c(C)cc21`, for which the pEC50 is > 6.92.

On to `CCOC(=O)Cc1csc(NC(=O)CSc2nc3sc(C(=O)O)c(C)c3c(=O)[nH]2)n1`, for which the EC50 was > 16 µM (inactive).

Consider `CCNC(=S)NNC(=O)c1cc(-c2cc(C)ccc2C)nc2ccccc12`, for which the negative-log EC50 (pEC50) is 6.87.

For `OCc1ccc(O)c2ncccc12`, the pEC50 is 4.91.

What is called pEC50 is the EC50 on a negative log10 scale, so that one unit is a factor of ten. Broadly, the EC50 is the concentration needed to bring the measured effect to its halfway point.
